Measurements reported in ChEMBL document CHEMBL5608113, “Targeting of CAF-induced therapy resistance in CRC organoid-stroma co-cultures” (2024).
Where “and” joins values, the source holds several entries; their conditions need not be identical. Identical values can stand only once.

System: Colon cancer organoid
Test: Targeting of F14 CAF-induced therapy resistance in O14 CRC organoid-stroma co-culture. Cell viability is reported with Gefitinib.
Assay type: functional, Homo sapiens
Conditions: Concentration 10 uM; 10 µM

SMILES	Cell Viability [%]
CCCS(=O)(=O)c1nc(NC2CC2)cc(-c2ccc3c(ccn3C3CC(C)(C)NC(C)(C)C3)c2)n1	57.1178

Same assay, conditions: Homo sapiens, Concentration 1 uM; read-out: Cell Viability

SMILES	viability at 1 µM [%]
CNC(=O)Nc1ccc2c(c1)CC[C@@]21OC(=O)N(CC(=O)N(Cc2ccc(F)cc2)[C@@H](C)C(F)(F)F)C1=O [A-485]	23.9
CCOC(=O)c1cc2cc(-c3cc(C(=O)NCc4ccc(C(=O)O)cc4)nn3C)ccc2[nH]1 [BI 4394]	59.3

Same assay, conditions: Homo sapiens, Concentration 10 uM; read-out: Cell Viability

SMILES	viability at 10 µM [%]
O=C(NCc1ccccc1)c1ccc(S(=O)(=O)NCc2ccccc2)cc1	40.5
CCC(=O)N[C@H]1CC[C@@H](C(=O)N(C)c2ccc(-c3nc4ccccc4o3)cc2)C1 [BI 99179]	44.8
CCCc1cc(C)[nH]c(=O)c1CNC(=O)c1cc(-c2ccc(N3CCN(C(C)C)CC3)nc2)cc2c1cnn2C(C)C	77.8
C[C@H](c1ccc(F)cc1)N(Cc1ccc(Cl)c(C(=O)O)c1)C(=O)c1cnc2ccccc2c1 [PF-05257137]	51.5
CC(=O)c1cc(-c2ccccc2OCC2CC2)c2ncccn12	73.2
Cn1cc(CNCC2CCN(c3ncc(C(=O)NO)cn3)CC2)c2ccccc21 [QUISINOSTAT]	0.22
Cc1cc(=O)n(C)c2cc(N3C(=O)CC[C@H](NS(=O)(=O)CC(C)C)[C@H]3c3ccc(Cl)cc3)ccc12	72.6
Cc1nnc2c3ccccc3c(N[C@@H](C)[C@H](c3ccccc3)N(C)C)nn12	53.6
CCCOc1ccn2c(C(C)=O)cc(-c3ccccc3S(C)(=O)=O)c2c1	59.1
CCCCNNC(=O)c1ccc(Br)cc1	44.9
CC(=O)Nc1ncc(CN2CCC[C@H](Cc3cc(C)nc(C)c3)C2)s1 [JNJ-65355394]	47.9
CCCS(=O)(=O)c1nc(NC2CC2)cc(-c2ccc3c(ccn3C3CC(C)(C)NC(C)(C)C3)c2)n1	49.6

System: Colon cancer organoid
Test: Targeting of F14 CAF-induced therapy resistance in O23 CRC organoid-stroma co-culture. Cell viability is reported with SN-38.
Assay type: functional, Homo sapiens
Conditions: Concentration 10 uM; 10 µM

SMILES	Cell Viability [%]
CCCS(=O)(=O)c1nc(NC2CC2)cc(-c2ccc3c(ccn3C3CC(C)(C)NC(C)(C)C3)c2)n1	68.6533

Same assay, conditions: Homo sapiens, Concentration 1 uM; read-out: Cell Viability

SMILES	viability at 1 µM [%]
CNC(=O)Nc1ccc2c(c1)CC[C@@]21OC(=O)N(CC(=O)N(Cc2ccc(F)cc2)[C@@H](C)C(F)(F)F)C1=O [A-485]	51
CCOC(=O)c1cc2cc(-c3cc(C(=O)NCc4ccc(C(=O)O)cc4)nn3C)ccc2[nH]1 [BI 4394]	83.8

Same assay, conditions: Homo sapiens, Concentration 10 uM; read-out: Cell Viability

SMILES	viability at 10 µM [%]
O=C(NCc1ccccc1)c1ccc(S(=O)(=O)NCc2ccccc2)cc1	82.9
CCC(=O)N[C@H]1CC[C@@H](C(=O)N(C)c2ccc(-c3nc4ccccc4o3)cc2)C1 [BI 99179]	124
CCCc1cc(C)[nH]c(=O)c1CNC(=O)c1cc(-c2ccc(N3CCN(C(C)C)CC3)nc2)cc2c1cnn2C(C)C	102
C[C@H](c1ccc(F)cc1)N(Cc1ccc(Cl)c(C(=O)O)c1)C(=O)c1cnc2ccccc2c1 [PF-05257137]	93.8
CC(=O)c1cc(-c2ccccc2OCC2CC2)c2ncccn12	102
Cn1cc(CNCC2CCN(c3ncc(C(=O)NO)cn3)CC2)c2ccccc21 [QUISINOSTAT]	1.67
Cc1cc(=O)n(C)c2cc(N3C(=O)CC[C@H](NS(=O)(=O)CC(C)C)[C@H]3c3ccc(Cl)cc3)ccc12	81.7
Cc1nnc2c3ccccc3c(N[C@@H](C)[C@H](c3ccccc3)N(C)C)nn12	141
CCCOc1ccn2c(C(C)=O)cc(-c3ccccc3S(C)(=O)=O)c2c1	98.8
CCCCNNC(=O)c1ccc(Br)cc1	75
CC(=O)Nc1ncc(CN2CCC[C@H](Cc3cc(C)nc(C)c3)C2)s1 [JNJ-65355394]	44.3
CCCS(=O)(=O)c1nc(NC2CC2)cc(-c2ccc3c(ccn3C3CC(C)(C)NC(C)(C)C3)c2)n1	77.1

System: Colon cancer organoid
Test: Targeting of F14 CAF-induced therapy resistance in O14 CRC organoid-stroma co-culture. Cell viability is reported without Gefitinib.
Assay type: functional, Homo sapiens
Conditions: Concentration 10 uM; 10 µM

SMILES	Cell Viability
CCCS(=O)(=O)c1nc(NC2CC2)cc(-c2ccc3c(ccn3C3CC(C)(C)NC(C)(C)C3)c2)n1	91.0371% and 136.896%

Same assay, conditions: Homo sapiens, Concentration 1 uM; read-out: Cell Viability

SMILES	viability at 1 µM [%]
CNC(=O)Nc1ccc2c(c1)CC[C@@]21OC(=O)N(CC(=O)N(Cc2ccc(F)cc2)[C@@H](C)C(F)(F)F)C1=O [A-485]	65.4
CCOC(=O)c1cc2cc(-c3cc(C(=O)NCc4ccc(C(=O)O)cc4)nn3C)ccc2[nH]1 [BI 4394]	95.7

Same assay, conditions: Homo sapiens, Concentration 10 uM; read-out: Cell Viability

SMILES	viability at 10 µM [%]
O=C(NCc1ccccc1)c1ccc(S(=O)(=O)NCc2ccccc2)cc1	103
CCC(=O)N[C@H]1CC[C@@H](C(=O)N(C)c2ccc(-c3nc4ccccc4o3)cc2)C1 [BI 99179]	48.5
CCCc1cc(C)[nH]c(=O)c1CNC(=O)c1cc(-c2ccc(N3CCN(C(C)C)CC3)nc2)cc2c1cnn2C(C)C	95.6
C[C@H](c1ccc(F)cc1)N(Cc1ccc(Cl)c(C(=O)O)c1)C(=O)c1cnc2ccccc2c1 [PF-05257137]	84
CC(=O)c1cc(-c2ccccc2OCC2CC2)c2ncccn12	80.2
Cn1cc(CNCC2CCN(c3ncc(C(=O)NO)cn3)CC2)c2ccccc21 [QUISINOSTAT]	0.685
Cc1cc(=O)n(C)c2cc(N3C(=O)CC[C@H](NS(=O)(=O)CC(C)C)[C@H]3c3ccc(Cl)cc3)ccc12	75.8
Cc1nnc2c3ccccc3c(N[C@@H](C)[C@H](c3ccccc3)N(C)C)nn12	69.8
CCCOc1ccn2c(C(C)=O)cc(-c3ccccc3S(C)(=O)=O)c2c1	111
CCCCNNC(=O)c1ccc(Br)cc1	85.9
CC(=O)Nc1ncc(CN2CCC[C@H](Cc3cc(C)nc(C)c3)C2)s1 [JNJ-65355394]	106

System: Colon cancer organoid
Test: Targeting of F14 CAF-induced therapy resistance in O23 CRC organoid-stroma co-culture. Cell viability is reported without Gefitinib.
Assay type: functional, Homo sapiens
Conditions: Concentration 10 uM; 10 µM

SMILES	Cell Viability
CCCS(=O)(=O)c1nc(NC2CC2)cc(-c2ccc3c(ccn3C3CC(C)(C)NC(C)(C)C3)c2)n1	73.362% and 105.525%

Same assay, conditions: Homo sapiens, Concentration 1 uM; read-out: Cell Viability

SMILES	viability at 1 µM [%]
CNC(=O)Nc1ccc2c(c1)CC[C@@]21OC(=O)N(CC(=O)N(Cc2ccc(F)cc2)[C@@H](C)C(F)(F)F)C1=O [A-485]	60.4
CCOC(=O)c1cc2cc(-c3cc(C(=O)NCc4ccc(C(=O)O)cc4)nn3C)ccc2[nH]1 [BI 4394]	148

Same assay, conditions: Homo sapiens, Concentration 10 uM; read-out: Cell Viability

SMILES	viability at 10 µM [%]
O=C(NCc1ccccc1)c1ccc(S(=O)(=O)NCc2ccccc2)cc1	97
CCC(=O)N[C@H]1CC[C@@H](C(=O)N(C)c2ccc(-c3nc4ccccc4o3)cc2)C1 [BI 99179]	168
CCCc1cc(C)[nH]c(=O)c1CNC(=O)c1cc(-c2ccc(N3CCN(C(C)C)CC3)nc2)cc2c1cnn2C(C)C	152
C[C@H](c1ccc(F)cc1)N(Cc1ccc(Cl)c(C(=O)O)c1)C(=O)c1cnc2ccccc2c1 [PF-05257137]	81.5
CC(=O)c1cc(-c2ccccc2OCC2CC2)c2ncccn12	142
Cn1cc(CNCC2CCN(c3ncc(C(=O)NO)cn3)CC2)c2ccccc21 [QUISINOSTAT]	11.7
Cc1cc(=O)n(C)c2cc(N3C(=O)CC[C@H](NS(=O)(=O)CC(C)C)[C@H]3c3ccc(Cl)cc3)ccc12	144
Cc1nnc2c3ccccc3c(N[C@@H](C)[C@H](c3ccccc3)N(C)C)nn12	119
CCCOc1ccn2c(C(C)=O)cc(-c3ccccc3S(C)(=O)=O)c2c1	113
CCCCNNC(=O)c1ccc(Br)cc1	151
CC(=O)Nc1ncc(CN2CCC[C@H](Cc3cc(C)nc(C)c3)C2)s1 [JNJ-65355394]	103

System: Colon cancer organoid
Test: Targeting of F14 CAF-induced therapy resistance in O23 CRC organoid-stroma co-culture. Cell viability is reported with Gefitinib.
Assay type: functional, Homo sapiens
Conditions: Concentration 10 uM; 10 µM

SMILES	Cell Viability [%]
CCCS(=O)(=O)c1nc(NC2CC2)cc(-c2ccc3c(ccn3C3CC(C)(C)NC(C)(C)C3)c2)n1	66.056

Same assay, conditions: Homo sapiens, Concentration 1 uM; read-out: Cell Viability

SMILES	viability at 1 µM [%]
CNC(=O)Nc1ccc2c(c1)CC[C@@]21OC(=O)N(CC(=O)N(Cc2ccc(F)cc2)[C@@H](C)C(F)(F)F)C1=O [A-485]	34.6
CCOC(=O)c1cc2cc(-c3cc(C(=O)NCc4ccc(C(=O)O)cc4)nn3C)ccc2[nH]1 [BI 4394]	77.1

Same assay, conditions: Homo sapiens, Concentration 10 uM; read-out: Cell Viability

SMILES	viability at 10 µM [%]
O=C(NCc1ccccc1)c1ccc(S(=O)(=O)NCc2ccccc2)cc1	58.1
CCC(=O)N[C@H]1CC[C@@H](C(=O)N(C)c2ccc(-c3nc4ccccc4o3)cc2)C1 [BI 99179]	82
CCCc1cc(C)[nH]c(=O)c1CNC(=O)c1cc(-c2ccc(N3CCN(C(C)C)CC3)nc2)cc2c1cnn2C(C)C	68.8
C[C@H](c1ccc(F)cc1)N(Cc1ccc(Cl)c(C(=O)O)c1)C(=O)c1cnc2ccccc2c1 [PF-05257137]	41.2
CC(=O)c1cc(-c2ccccc2OCC2CC2)c2ncccn12	76.3
Cn1cc(CNCC2CCN(c3ncc(C(=O)NO)cn3)CC2)c2ccccc21 [QUISINOSTAT]	6.71
Cc1cc(=O)n(C)c2cc(N3C(=O)CC[C@H](NS(=O)(=O)CC(C)C)[C@H]3c3ccc(Cl)cc3)ccc12	66
Cc1nnc2c3ccccc3c(N[C@@H](C)[C@H](c3ccccc3)N(C)C)nn12	55.2
CCCOc1ccn2c(C(C)=O)cc(-c3ccccc3S(C)(=O)=O)c2c1	65.2
CCCCNNC(=O)c1ccc(Br)cc1	53.8
CC(=O)Nc1ncc(CN2CCC[C@H](Cc3cc(C)nc(C)c3)C2)s1 [JNJ-65355394]	88.8
CCCS(=O)(=O)c1nc(NC2CC2)cc(-c2ccc3c(ccn3C3CC(C)(C)NC(C)(C)C3)c2)n1	68.4
